In paper PMC5681660, “Reduced hepatitis B and D viral entry using clinically applied drugs as novel inhibitors of the bile acid transporter NTCP” (Scientific Reports, 2017):
Where a name gives a salt, the structure may show the parent alone.

Biological target: T1, human NTCP (Homo sapiens, UniProt Q14973)
T1 sequence (Q14973 1-349): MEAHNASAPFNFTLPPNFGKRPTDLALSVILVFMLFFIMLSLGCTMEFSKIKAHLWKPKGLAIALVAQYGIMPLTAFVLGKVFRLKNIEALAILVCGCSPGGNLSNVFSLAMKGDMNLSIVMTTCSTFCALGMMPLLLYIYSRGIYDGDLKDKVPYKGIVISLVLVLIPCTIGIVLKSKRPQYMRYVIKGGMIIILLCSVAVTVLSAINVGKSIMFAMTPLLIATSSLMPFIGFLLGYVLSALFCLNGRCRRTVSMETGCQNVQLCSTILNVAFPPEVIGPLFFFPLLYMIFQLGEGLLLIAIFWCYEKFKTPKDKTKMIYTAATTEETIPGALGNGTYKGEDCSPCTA
Test: Screening taurocholate uptake assay (96-well, [14C]taurocholate, 10 µM drug)
Conditions: for B-score functional assay: screening taurocholate uptake, 10 µM drug

[1] = combined ranking of functional and binding screening assays
[2] = ranking over the functional and the binding screening assay

| SMILES | Ranking score [1] | B-score functional assay | Ranking score [2] | B-score functional assay (B-score) |
| --- | --- | --- | --- | --- |
| CN1CCCN=C1/C=C/c1cccs1.O=C(O)C(O)C(O)C(=O)O [Pyrantel tartrate] | 600.829 | -0.111 |  |  |
| NC(=O)c1cnccn1 [Pyrazinamide] |  | 0.065 | 244.119 |  |
| CN(C)C(=O)Oc1ccc[n+](C)c1.[I-] [Pyridostigmine iodide] | 1177.01 |  |  | 1.154 |
| CCc1nc(N)nc(N)c1-c1ccc(Cl)cc1 [Pyrimethamine] | 1154.81 |  |  | 2.36 |
| CCC1(CC)C(=O)C=CNC1=O [Pyrithyldione] | 558.14 | 0.404 |  |  |
| OCCOCCN1CCN(C2=Nc3ccccc3Sc3ccccc32)CC1 [Quetiapine hemifumarate] | 473.772 | -0.346 |  |  |
| CC(=O)SCC(Cc1ccccc1)C(=O)NCC(=O)OCc1ccccc1 (stereo not shown) [Racecadotril] |  | -1.398 | 264.726 |  |
| CNCC(O)c1ccc(O)c(O)c1 (stereo not shown) [Racepinephrine HCl] | 629.338 | -0.581 |  |  |
| COc1ccccc1OCC(O)CN1CCN(CC(=O)Nc2c(C)cccc2C)CC1 (stereo not shown) [Ranolazine] | 603.017 | 1.748 |  |  |
| CCN1CCC[C@H]1CNC(=O)c1c(OC)ccc(Br)c1OC.Cl [Remoxipride Hydrochloride] | 496.085 | -0.058 |  |  |
| CCOc1cc(CC(=O)N[C@@H](CC(C)C)c2ccccc2N2CCCCC2)ccc1C(=O)O [Repaglinide] |  | -2.984 | 233.103 |  |
| CC1=C(/C=C/C(C)=C/C=C/C(C)=C/C(=O)O)C(C)(C)CCC1 [Retinoic acid] |  | -0.152 | 197.388 |  |
| CO[C@H]1/C=C/O[C@@]2(C)Oc3c(C)c(O)c4c(O)c(c(/C=N/N5CCN(C6CCCC6)CC5)c(O)c4c3C2=O)NC(=O)/C(C)=C\C=C\[C@H](C)[C@H](O)[C@@H](C)[C@@H](O)[C@@H](C)[C@H](OC(C)=O)[C@@H]1C [Rifapentine] |  | 0.477 | 220.209 |  |
| CO[C@H]1/C=C/O[C@@]2(C)Oc3c(C)c(O)c4c(O)c(c5c(nc6cc(C)ccn65)c4c3C2=O)NC(=O)/C(C)=C\C=C\[C@H](C)[C@H](O)[C@@H](C)[C@@H](O)[C@@H](C)[C@H](OC(C)=O)[C@@H]1C [Rifaximin] | 627.999 | -0.408 |  |  |
| CCN(C)C(=O)Oc1cccc([C@H](C)N(C)C)c1 [Rivastigmine] | 642.937 | -0.006 |  |  |
| CS(=O)(=O)c1ccc(C2=C(c3ccccc3)C(=O)OC2)cc1 [Rofecoxib] |  | 1.027 | 212.386 |  |
| CN(CCOc1ccc(CC2SC(=O)NC2=O)cc1)c1ccccn1.Cl (stereo not shown) [Rosiglitazone Hydrochloride] |  | -7.292 | 31.1127 |  |
| CC[C@H]1OC(=O)[C@H](C)[C@@H](O[C@H]2C[C@@](C)(OC)[C@@H](O)[C@H](C)O2)[C@H](C)[C@@H](O[C@@H]2O[C@H](C)C[C@H](N(C)C)[C@H]2O)[C@](C)(O)C[C@@H](C)/C(=N\OCOCCOC)[C@H](C)[C@@H](O)[C@]1(C)O [Roxithromycin] |  | 1.396 | 275.763 |  |
| CN1CCN(c2c(F)cc3c(=O)c(C(=O)O)cn4c3c2SCC4)CC1 [Rufloxacin] | 471.137 | -0.276 |  |  |
| CC(C)(C)NCC(O)c1ccc(O)c(CO)c1 (stereo not shown) [Salbutamol] |  | 1.838 | 275.042 |  |
| Br.C[N+]1([O-])[C@@H]2CC(OC(=O)[C@H](CO)c3ccccc3)C[C@H]1[C@@H]1O[C@@H]12 (stereo partly shown) [Scopolamin-N-oxide hydrobromide] |  | -2.352 | 208.216 |  |

| SMILES | Ranking score [1] | B-score functional assay | Ranking score [2] | B-score functional assay (B-score) |
| --- | --- | --- | --- | --- |
| CN1[C@@H]2CC(OC(=O)[C@H](CO)c3ccccc3)C[C@H]1[C@@H]1O[C@@H]12.Cl (stereo partly shown) [Scopolamine hydrochloride] | 577.314 | 0.343 |  |  |
| Cc1ncc([N+](=O)[O-])n1CC(C)O (stereo not shown) [Secnidazole] | 548.521 | -0.391 |  |  |
| C#CCN(C)[C@H](C)Cc1ccccc1 [Selegiline hydrochloride] | 462.99 | -1.141 |  |  |
| NCCc1c[nH]c2ccc(O)cc12 [Serotonin hydrochloride] |  | 0.952 | 107.778 |  |
| CC(C)CC(N(C)C)C1(c2ccc(Cl)cc2)CCC1.Cl (stereo not shown) [Sibutramine HCl] |  | -0.386 | 211.232 |  |
| C[C@H](Cc1cc2c(c(C(N)=O)c1)N(CCCO)CC2)NCCOc1ccccc1OCC(F)(F)F [Silodosin] | 510.413 | 1.072 |  |  |
| C[C@@H]1CN(c2c(F)c(N)c3c(=O)c(C(=O)O)cn(C4CC4)c3c2F)C[C@H](C)N1 [Sparfloxacin] |  | -2.411 | 231.849 |  |
| CN[C@@H]1[C@H](O)[C@H](NC)[C@H]2O[C@@]3(O)C(=O)C[C@@H](C)O[C@H]3O[C@@H]2[C@H]1O.Cl.Cl [Spectinomycin dihydrochloride] |  | -0.865 | 126.98 |  |
| O=C(CCCN1CCC2(CC1)C(=O)NCN2c1ccccc1)c1ccc(F)cc1 [Spiperone] | 571.731 | -0.689 |  |  |
| [H]/N=C(/N)N[C@H]1[C@H](O)[C@@H](O)[C@H](O[C@@H]2O[C@@H](C)[C@](O)(C=O)[C@H]2O[C@@H]2O[C@@H](CO)[C@H](O)[C@@H](O)[C@@H]2NC)[C@@H](N/C(N)=N\[H])[C@@H]1O [Streptomycin sulfate] |  | 1.326 | 115.983 |  |
| O=C(O)CCC(=O)Nc1ccc(S(=O)(=O)Nc2nccs2)cc1 [Succinylsulfathiazole] |  | -0.075 | 258.147 |  |
| Nc1ccc(S(=O)(=O)NC(=O)c2ccccc2)cc1 [Sulfabenzamide] | 563.848 | 0.164 |  |  |
| CC(=O)[N-]S(=O)(=O)c1ccc(N)cc1.O.[Na+] [Sulfacetamide sodic hydrate] |  | -0.444 | 277.153 |  |
| Nc1ccc(S(=O)(=O)Nc2ccc(Cl)nn2)cc1 [Sulfachloropyridazine] | 530.669 | 0.615 |  |  |
| COc1cnc(NS(=O)(=O)c2ccc(N)cc2)nc1 [Sulfameter] | 466.613 | -1.201 |  |  |
| CC1=C(CC(=O)O)c2cc(F)ccc2/C1=C\c1ccc([S+](C)[O-])cc1 (stereo not shown) [Sulindac] |  | -1.878 | 109.727 |  |
| CC(C(=O)O)c1ccc(C(=O)c2cccs2)cc1 (stereo not shown) [Suprofen] | 554.797 | -0.917 |  |  |
| CCCCC1(COC(=O)CCC(=O)O)C(=O)N(c2ccccc2)N(c2ccccc2)C1=O [Suxibuzone] | 1138 |  |  | 1.433 |
| C[C@]1(Cn2ccnn2)[C@H](C(=O)O)N2C(=O)C[C@H]2S1(=O)=O [Tazobactam] | 613.948 | 2.889 |  |  |
| O=c1[nH]c(=O)n(C2CCCO2)cc1F (stereo not shown) [Tegafur] | 518.446 | -0.939 |  |  |
